Laboratory results published in the NIST ThermoML archive (doi:10.1016/j.jct.2011.07.021).
Numbers after ± are expanded uncertainties.

Experiments:
[1] = 101.33 kPa, Liquid, Vibrating tube method
[2] = refractive index (Na D-line) (dimensionless); conditions: 101.33 kPa, Liquid, Standard Abbe refractometry
[3] = relative permittivity at zero frequency (dimensionless); conditions: 101.33 kPa, Liquid, Parallel plate capacitor
[4] = refractive index (Na D-line) (dimensionless); xn = mol fraction of the nth substance listed; conditions: 101 kPa, Liquid, Standard Abbe refractometry
[5] = relative permittivity at zero frequency (dimensionless); xn = mol fraction of the nth substance listed; conditions: 101 kPa, Liquid, Parallel plate capacitor

CCC(O)CO (centres undefined) [1,2-butanediol]
Conditions	mass density, [1] [kg/m3]	refractive index, [2]	relative permittivity at zero frequency, [3]
298.2 K	998.67 ± 0.85	1.4372 ± 0.0005	22.143 ± 0.037
308.2 K	991.15 ± 0.84	1.433 ± 0.0005	20.365 ± 0.036
318.2 K	983.55 ± 0.83	1.4288 ± 0.0005	18.661 ± 0.036

CCC(O)CO (centres undefined) [1,2-butanediol] + CCCCC(CC)CO
x1 = 1
Conditions	refractive index, 298.2 K	refractive index, 308.2 K	refractive index, 318.2 K	relative permittivity at zero frequency, 298.2 K	relative permittivity at zero frequency, 308.2 K	relative permittivity at zero frequency, 318.2 K
[4]	1.4372 ± 0.0005	1.4312 ± 0.0005	1.4281 ± 0.0005	–	–	–
[5]	–	–	–	22.143 ± 0.037	20.365 ± 0.036	18.661 ± 0.036

C1COCCO1 [1,4-dioxane]
Conditions	mass density, [1] [kg/m3]	refractive index, [2]	relative permittivity at zero frequency, [3]
298.2 K	1027.9 ± 0.27	1.4201 ± 0.0004	2.228 ± 0.01
308.2 K	1016.11 ± 0.26	1.4142 ± 0.0004	2.21 ± 0.01
318.2 K	1005 ± 0.3	1.4084 ± 0.0004	2.187 ± 0.01

C1COCCO1 [1,4-dioxane] + CCC(O)CO
x2 = 0
Conditions	refractive index, 298.2 K	refractive index, 308.2 K	refractive index, 318.2 K	relative permittivity at zero frequency, 298.2 K	relative permittivity at zero frequency, 308.2 K	relative permittivity at zero frequency, 318.2 K
[4]	1.4201 ± 0.0004	1.4142 ± 0.0004	1.4084 ± 0.0004	–	–	–
[5]	–	–	–	2.228 ± 0.01	2.209 ± 0.01	2.187 ± 0.01

CCCCC(CC)CO (centres undefined) [2-ethyl-1-hexanol]
Conditions	mass density, [1] [kg/m3]	refractive index, [2]	relative permittivity at zero frequency, [3]
298.2 K	830.62 ± 0.22	1.4293 ± 0.0004	7.353 ± 0.022
308.2 K	823.1 ± 0.22	1.4252 ± 0.0004	6.361 ± 0.021
318.2 K	814.91 ± 0.23	1.4213 ± 0.0004	5.522 ± 0.02
